Experiments:
fungal bioluminescence = conditions: isolated from Pleurotus japonicus; cited from earlier work
[1] = molecular target: T1, cold extract from Neonothopanus nambi (Neonothopanus nambi, UniProt A0A3G9K5C8); assay: Bioluminescent test of hot-extract HPLC fractions with cold extract and NADPH; format: biochemical; conditions: cold extract from N. nambi, NADPH; values normalised against optical density at 360 nm
T1 construct: an extract comprising the enzymes of the fungal bioluminescent system and free from low-molecular-weight components; from tissue; host or cells: Neonothopanus nambi mycelium, crude cold extract (30000 g supernatant of the homogenate)
Description: The obtained extracts were tested in a bioluminescent test described by Oliveira and Stevani (Photochem. Photobiol. Sci., 2009, 8, 1416) using a cold extract from Neonothopanus nambi.
In order to obtain a cold extract, the mycelium was washed to get rid of culture medium, then, it was put into a 200-fold amount of distilled water for 15 hours at 26° C. Thereafter, the mycelium was separated from water by centrifugation, then, it was homogenized on ice in 10 volumes of 0.2 M phosphate buffer, pH 7.5 and sonicated on ice for 10 minutes using Ultrasonic disintegrator UD-20. The homogenate was centrifuged at 30000 g at […] for 20 minutes. The obtained cold extract was stored at −20° C.
500 μl of the following components were mixed for a bioluminescent test: 25 μL of cold extract, 2 μL of hot extract, 442 μL 0.2 M phosphate buffer, pH 7.5, 1 μL 1 M DTT and 10 μL 1% Triton X-100. The bioluminescent reaction was initiated in a Glomax 20/20 (Promega, USA) luminometer cuvette by adding 20 μL 20 mM NADPH. Luminescence was measured at 23±1° C.
The maximum luminescence of fractions 1-6 was 24000, 80, 6670, 40, 1300 and 1000 correspondingly (a signal-to-noise ratio of the luminometer, the values were normalised against optical density at 360 nm).

[2] = molecular target: T2, luciferase and hispidin-3-hydroxylase (cold extract of N. nambi) (Neonothopanus nambi, UniProt A0A3G9K5C8); assay: Dependence of maximal bioluminescence (Imax) on reagent concentration in the reaction mixture; format: biochemical
T2 construct: an extract comprising the enzymes of the fungal bioluminescent system and free from low-molecular-weight components; from tissue; host or cells: Neonothopanus nambi mycelium, crude cold extract (30000 g supernatant of the homogenate)
Description: The concentrated hispidin solution was used to produce dilutions of 1/50, 1/500, 1/5000, 1/50000 in an aqueous solution with 0.1% Triton X-100 and 0.1% formic acid.
The reaction mixture in the bioluminometer cuvette comprised: 100 μL 0.1 M phosphate buffer, pH 7.5, containing 0.1 mM DTT, 4 μL of the cold extract of N. nambi, 1-5 μL of hispidin dilutions. The bioluminescent reaction was activated by adding 4 μL 10 mM NADPH. Bioluminescence was measured at 25° C.
The reaction mixture in the bioluminometer cuvette comprised: 100 μL 0.1 M phosphate buffer, pH 7.5, comprising 0.1 mM DTT, 4 μL of the cold extract of N. nambi, 4 μL 64 μM hispidin solution and various amounts of Triton X-100 detergent. The bioluminescent reaction was activated by adding 4 μL 10 mM NADPH. […] The optimal detergent concentration in the reaction mixture was determined as 0.015 to 0.03%. The maximum detergent concentration at which bioluminescence was observed was 0.5%.
The reaction mixture in the bioluminometer cuvette comprised: 100 μL 0.1 M phosphate buffer, pH 7.5, comprising 0.1 mM DTT, 4 μL of the cold extract of N. nambi, 4 μL […] hispidin solution. The bioluminescent reaction was activated by adding various amounts of NADPH. […] The minimum NADPH concentration which provided detectable bioluminescence was 20 μM.
The reaction mixture in the bioluminometer cuvette comprised: 100 μL 0.1 M phosphate buffer, pH 7.5, comprising various concentrations of DTT, 4 μL of the cold extract of N. nambi, 4 μL 64 μM hispidin solution. The bioluminescent reaction was activated by adding 4 μL 10 mM NADPH. […] The optimal DTT concentration in the reaction mixture was 0.5 to 3 mM. The maximum DTT concentration which provided bioluminescence was 10 mM.

luciferase = assay: Detection of luciferase in microsomal fractions of cold extracts with 3-hydroxyhispidin; format: biochemical; conditions: aliquots with 0.006 ng and 0.16 ng of luciferin; microsomal fractions of four fungi
Description: 3-hydroxyhispidin was obtained as described in Example 3. The microsomal fractions of the cold extracts of Neonothopanus nambi, Mycena citricolor, Panellus stipticus and Armillaria borealis were used as biological samples. The cold extracts were obtained as described in Example 2. The microsomal fractions were obtained as described in Example 3.
10 μg of 3-hydroxyhispidin were dissolved in 1 mL 50% water-acetonitrile mixture containing 0.1% formic acid.
During the experiment, in each case, the background luminescence of the microsomal fraction was measured in the first place, and then, at 0.7 and 1.55 minutes, 3-hydroxyhispidin solution aliquots were added, which contained 0.006 ng and 0.16 ng of luciferin, correspondingly.

[3] = Stability of 3-hydroxyhispidin; format: physicochemical
[4] = Solubility of 3-hydroxyhispidin; format: physicochemical
[5] = test system: luciferase and hispidin-3-hydroxylase; assay: Detection of luciferase and hispidin-3-hydroxylase in fungal cold extracts with hispidin and NAD(P)H; format: biochemical
Description: Commercially available hispidin (Sigma-Aldrich, USA) was used for detecting luciferase and hispidin-3-hydroxylase in the cold extracts obtained from the mycelia of Neonothopanus nambi, Mycena citricolor, Panellus stipticus, and Armillaria borealis as described in Example 1.
Hispidin was dissolved in DMSO to a final concentration of 8 mg/ml (32 mM). Then, the obtained concentrated solution was diluted 500-fold by aqueous solution containing 0.1% Triton X-100 and 0.1% formic acid. Hispidin concentration in the obtained working solution was 64 μM.
The reaction mixture in Glomax 20/20 cuvette (Promega, USA) comprised: 100 μL 0.2 M phosphate buffer, pH 7.5, comprising 0.1 mM DTT and 0.1 mM EDTA, 1-5 μL of fungal extract, 4 μL 64 μM hispidin solution. The luminescent reaction was initiated by adding 4 μL 10 mM NADPH.
In a different experiment, the same samples were tested for the presence of luciferase and hispidin-3-hydroxylase activities as described above with the exception that NADH was used (instead of NADPH). In this case, luminescence was 2-3 times lower than when using NADPH.

[6] = hispidin, NADPH, cold extract of N. nambi
[7] = 0.1 M phosphate buffer pH 7.5, 0.1 mM DTT, NADPH, 25° C.

T2 sequence (A0A3G9K5C8 whole entry): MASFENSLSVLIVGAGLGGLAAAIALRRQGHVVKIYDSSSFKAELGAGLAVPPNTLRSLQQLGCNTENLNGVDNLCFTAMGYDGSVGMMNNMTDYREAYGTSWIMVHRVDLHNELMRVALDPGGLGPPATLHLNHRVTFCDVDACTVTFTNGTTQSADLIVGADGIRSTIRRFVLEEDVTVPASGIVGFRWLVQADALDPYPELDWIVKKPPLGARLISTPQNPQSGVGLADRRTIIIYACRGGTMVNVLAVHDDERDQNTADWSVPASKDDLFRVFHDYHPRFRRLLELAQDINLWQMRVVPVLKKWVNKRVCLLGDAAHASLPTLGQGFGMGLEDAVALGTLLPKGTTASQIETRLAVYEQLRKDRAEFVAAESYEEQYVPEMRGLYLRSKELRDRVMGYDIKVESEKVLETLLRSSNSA
T1 sequence (A0A3G9K5C8 whole entry): as above

## CC1=C2C(=C[C@@](C)(CO)[C@@H]2O)C(=O)[C@](C)(O)C12CC2 [illudin S]
Fungal bioluminescence
  bioluminescent activity: did not show bioluminescent activity

## Cc1cc2nc3c(=O)[nH]c(=O)nc-3n(C[C@H](O)[C@H](O)[C@H](O)CO)c2cc1C [riboflavin]
Fungal bioluminescence
  bioluminescent activity: did not show bioluminescent activity

## O=c1cc(O)cc(/C=C\c2ccc(O)c(O)c2)o1 (single isomer, unassigned) [Fraction 3, (Z)-6-(3,4-dihydroxystyryl)-4-hydroxy-2H-pyran-2-one]
[1]
  maximum luminescence: 6670 signal-to-noise ratio of the luminometer

## O=c1cc(O)cc(/C=C\c2ccc(O)cc2)o1 (single isomer, unassigned) [Fraction 6, (Z)-4-hydroxy-6-(4-hydroxystyryl)-2H-pyran-2-one]
[1]
  maximum luminescence: 1000 signal-to-noise ratio of the luminometer

## nicotinamide adenine dinucleotide phosphate [NADPH, reference compound]
[2]; hispidin, cold extract of N. nambi, pH 7.5
  minimum NADPH concentration which provided detectable bioluminescence: 20 µM

## O[C@H](CS)[C@H](O)CS (racemic) [DTT, dithiothreitol, reference compound]
[2]; [6]
  maximum DTT concentration which provided bioluminescence: 10 mM

## Cc1cc2nc3c(=O)[nH]c(=O)nc-3n(C[C@H](O)[C@H](O)[C@H](O)COC3OC(CO)C(O)C3O)c2cc1C (some centres unmarked) [lampteroflavin]
Fungal bioluminescence
  bioluminescent activity: did not show bioluminescent activity

## 3.3-bishispidinyl [Fraction 2]
[1]
  maximum luminescence: 80 signal-to-noise ratio of the luminometer

## O=c1oc(/C=C/c2ccc(O)c(O)c2)cc(O)c1O [3-hydroxyhispidin, (E)-6-(3,4-dihydroxystyryl)-3,4-dihydroxy-2H-pyran-2-one]
luciferase
  luminescence of microsomal fractions after adding 3-hydroxyhispidin: luminescence was detected
[3]; lyophilized, −20° C., often no less than 60 days, normally no less than a year
  storage time with no activity loss: no less than 30 days
[3]; water solution
  thermal stability: can sustain short-term boiling
[3]; water-acetonitrile mixture with formic acid, final concentration 0.1%
  stability during chromatography: shows stability
[4]; DMSO, acetonitrile, acetone, etc.
  solubility in aprotic solvents: readily soluble
[4]; water
  solubility in water: moderately soluble

## O=c1cc(O)cc(C=Cc2cc(O)c(O)cc2-c2c(O)cc(C=Cc3ccc(O)cc3)oc2=O)o1 [Fraction 4, 3-bisnoryangonyl-14-hispidin]
[1]
  maximum luminescence: 40 signal-to-noise ratio of the luminometer

## Triton X-100 [reference compound]
[2]; [6]
  maximum detergent concentration at which bioluminescence was observed: 0.5%

## O=c1cc(O)cc(/C=C/c2ccc(O)cc2)o1 (single isomer, unassigned) [Fraction 5, (E)-4-hydroxy-6-(4-hydroxystyryl)-2H-pyran-2-one]
[1]
  maximum luminescence: 1300 signal-to-noise ratio of the luminometer
[5]; bisnoryangonin added instead of hispidin
  maximum intensity of sample luminescence, times lower as compared to using hispidin: approximately 10 times

## O=c1cc(O)cc(/C=C/c2ccc(O)c(O)c2)o1 (single isomer, unassigned) [Fraction 1, (E)-6-(3,4-dihydroxystyryl)-4-hydroxy-2H-pyran-2-one]
[1]
  maximum luminescence: 24000 signal-to-noise ratio of the luminometer
[5]; 4 μL 64 μM hispidin, 4 μL 10 mM NADPH, cold extracts of four fungi
  luminescence of cold extracts after adding hispidin and NADPH: Luminescence was detected in all cases
[2]; [7]
  hispidin concentration at which detectable luminescence was observed: ≥ 0.002 µM
  optimal hispidin concentration in the reaction mixture: 2.5 µM
[2]; probably substrate inhibition
  hispidin concentration at which inhibition of the luminescent reaction was observed: more than 5 μM

Source: patent US12473582B2, “Method and agents for detecting luciferase activity” (LIGHT BIO, INC., priority 2015, dated 2025)
